Results on nine molecules are retold here after publication PMC3165067 (Journal of medicinal chemistry, 2011).

For test [1], the target named is T1, Antithrombin inhibition of factor Xa (Homo sapiens, UniProt P01008). Kind of test: Kinetics of antithrombin inhibition of factor Xa in presence of activators. In kind it is biochemical. The settings on record: for kACT (second-order rate constant of fXa inhibition by AT–activator complex): pH 6.0, 25 mM NaCl, 25 °C, error ±1 S.E.
The target of test [2] is T1, Antithrombin inhibition of factor Xa. The settings on record: ref [32], cited from earlier work.

T1 sequence (P01008 33-464): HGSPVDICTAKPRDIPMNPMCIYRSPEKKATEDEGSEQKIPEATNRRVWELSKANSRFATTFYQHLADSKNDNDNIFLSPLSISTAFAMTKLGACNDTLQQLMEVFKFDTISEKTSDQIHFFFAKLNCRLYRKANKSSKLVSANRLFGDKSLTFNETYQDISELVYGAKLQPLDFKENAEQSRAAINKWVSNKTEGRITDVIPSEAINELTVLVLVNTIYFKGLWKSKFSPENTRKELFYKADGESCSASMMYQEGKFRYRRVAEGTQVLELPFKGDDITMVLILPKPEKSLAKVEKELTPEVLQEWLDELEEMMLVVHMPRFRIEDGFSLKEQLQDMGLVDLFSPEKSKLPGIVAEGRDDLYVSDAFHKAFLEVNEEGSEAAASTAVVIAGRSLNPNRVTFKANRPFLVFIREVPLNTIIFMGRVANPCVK

`O=C([O-])C1Cc2cc(OS(=O)(=O)[O-])c(OS(=O)(=O)[O-])cc2CN1C(=O)Cc1cc(OS(=O)(=O)[O-])ccc1OS(=O)(=O)[O-].[Na+].[Na+].[Na+].[Na+].[Na+]` (centres unmarked) [19a, Sodium 2-(2-(2,5-di-O-sulfonato-phenyl)acetyl)-6,7-di-O-sulfonato-1,2,3,4-tetrahydroisoquinoline-3-carboxylate tetrasodium]: the “kACT (second-order rate constant of fXa inhibition by AT–activator complex)” value in test [1] was 19740 ± 1290 M⁻¹ s⁻¹. As to `O=C([O-])C1Cc2cc(OS(=O)(=O)[O-])c(OS(=O)(=O)[O-])cc2CN1C(=O)CCc1cc(OS(=O)(=O)[O-])ccc1OS(=O)(=O)[O-].[Na+].[Na+].[Na+].[Na+].[Na+]` (centres unmarked) [19b, Sodium 2-(3-(2,5-di-O-sulfonato-phenyl)propanoyl)-6,7-di-O-sulfonato-1,2,3,4-tetrahydroisoquinoline-3-carboxylate tetrasodium], the “kACT (second-order rate constant of fXa inhibition by AT–activator complex)” value in test [1] came out at 8051 ± 751 M⁻¹ s⁻¹. Regarding `O=C([O-])C1Cc2cc(OS(=O)(=O)[O-])c(OS(=O)(=O)[O-])cc2CN1C(=O)CCCc1cc(OS(=O)(=O)[O-])ccc1OS(=O)(=O)[O-].[Na+].[Na+].[Na+].[Na+].[Na+]` (centres unmarked) [19c, Sodium 2-(4-(2,5-di-O-sulfonato-phenyl)butanoyl)-6,7-di-O-sulfonato-1,2,3,4-tetrahydroisoquinoline-3-carboxylate tetrasodium], in test [1], the “kACT (second-order rate constant of fXa inhibition by AT–activator complex)” value amounted to 9640 ± 748 M⁻¹ s⁻¹. On to `O=C([O-])C1Cc2c(OS(=O)(=O)[O-])ccc(OS(=O)(=O)[O-])c2CN1C(=O)Cc1cc(OS(=O)(=O)[O-])ccc1OS(=O)(=O)[O-].[Na+].[Na+].[Na+].[Na+].[Na+]` (centres unmarked) [20a, Sodium 2-(2-(2,5-di-O-sulfonato-phenyl)acetyl)-5,8-di-O-sulfonato-1,2,3,4-tetrahydroisoquinoline-3-carboxylate tetrasodium], for which, in test [1], the “kACT (second-order rate constant of fXa inhibition by AT–activator complex)” value came to 32630 ± 1644 M⁻¹ s⁻¹. Same read-out and setting: the value for `O=C([O-])C1Cc2c(OS(=O)(=O)[O-])ccc(OS(=O)(=O)[O-])c2CN1C(=O)CCc1cc(OS(=O)(=O)[O-])ccc1OS(=O)(=O)[O-].[Na+].[Na+].[Na+].[Na+].[Na+]` (centres unmarked) [20b, Sodium 2-(3-(2,5-di-O-sulfonato-phenyl)propanoyl)-5,8-di-O-sulfonato-1,2,3,4-tetrahydroisoquinoline-3-carboxylate tetrasodium] was 11800 ± 789 M⁻¹ s⁻¹. Consider `O=C([O-])C1Cc2c(OS(=O)(=O)[O-])ccc(OS(=O)(=O)[O-])c2CN1C(=O)CCCc1cc(OS(=O)(=O)[O-])ccc1OS(=O)(=O)[O-].[Na+].[Na+].[Na+].[Na+].[Na+]` (centres unmarked) [20c, Sodium 2-(4-(2,5-di-O-sulfonato-phenyl)butanoyl)-5,8-di-O-sulfonato-1,2,3,4-tetrahydro isoquinoline-3-carboxylate tetrasodium], for which, in test [1] (79-fold versus 300-fold for DEFGH), the “AT activation, fold less than that achieved with DEFGH” value came out at 3.8 fold. Further, in test [1], the “kACT (second-order rate constant of fXa inhibition by AT–activator complex)” value amounted to 46330 ± 2830 M⁻¹ s⁻¹.

With `O=S(=O)([O-])Oc1cc2c(c(OS(=O)(=O)[O-])c1)C[C@@H](OS(=O)(=O)[O-])[C@@H](c1ccc(OS(=O)(=O)[O-])c(OS(=O)(=O)[O-])c1)O2.[Na+].[Na+].[Na+].[Na+].[Na+]` [ECS], the kUNCAT in test [2] (20 mM sodium phosphate buffer, pH 6.0, 0.1 mM EDTA, 0.1% PEG8000) was ~120 M⁻¹ s⁻¹. The kACT in test [2] (pH 6.0, no added NaCl) is 909 ± 40 M⁻¹ s⁻¹. For `O=C(Cc1cc(OS(=O)(=O)[O-])ccc1OS(=O)(=O)[O-])N1CCc2cc(OS(=O)(=O)[O-])c(OS(=O)(=O)[O-])cc2C1.[Na+].[Na+].[Na+].[Na+]` [compound 7, 1-(6,7-di-O-sulfonato-3,4-dihydroisoquinolin-2(1H)-yl)-2-(2,5-di-O-sulfonato-phenyl) ethanone tetrasodium], the “kACT (second-order rate constant of fXa inhibition by AT–activator complex)” value in test [1] came out at 4582 ± 597 M⁻¹ s⁻¹. For `O=C(CCCc1cc(OS(=O)(=O)[O-])ccc1OS(=O)(=O)[O-])N1CCc2c(ccc(OS(=O)(=O)[O-])c2OS(=O)(=O)[O-])C1.[Na+].[Na+].[Na+].[Na+]` [compound 8, 1-(5,6-di-O-sulfonato-3,4-dihydroisoquinolin-2(1H)-yl)-4-(2,5-di-O-sulfonato-phenyl)butan-1-one tetrasodium], the “kACT (second-order rate constant of fXa inhibition by AT–activator complex)” value in test [1] stood at 3337 ± 265 M⁻¹ s⁻¹.
